Source: article doi:10.1101/2023.02.25.530034v1 (biorxiv, 2023)

How the values were obtained:
[1] = biological target: T1, rhBCAT1 (Homo sapiens, UniProt P54687); assay: aminotransferase activity assay with leucine dehydrogenase; format: biochemical
T1 sequence (P54687 1-386): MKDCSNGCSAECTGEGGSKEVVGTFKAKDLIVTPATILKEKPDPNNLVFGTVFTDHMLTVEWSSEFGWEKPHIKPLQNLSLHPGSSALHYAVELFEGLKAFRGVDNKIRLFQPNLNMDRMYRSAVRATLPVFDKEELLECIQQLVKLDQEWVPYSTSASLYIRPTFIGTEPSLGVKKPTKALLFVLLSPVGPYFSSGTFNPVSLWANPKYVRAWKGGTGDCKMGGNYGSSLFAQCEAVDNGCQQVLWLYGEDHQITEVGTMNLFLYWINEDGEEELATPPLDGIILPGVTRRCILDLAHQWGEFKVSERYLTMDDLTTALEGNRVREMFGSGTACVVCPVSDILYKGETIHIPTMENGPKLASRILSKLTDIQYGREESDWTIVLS

[2] = biological target: T2, rhBCAT2 (Homo sapiens, UniProt O15382); assay: as above; format: biochemical
T2 sequence (O15382 28-392): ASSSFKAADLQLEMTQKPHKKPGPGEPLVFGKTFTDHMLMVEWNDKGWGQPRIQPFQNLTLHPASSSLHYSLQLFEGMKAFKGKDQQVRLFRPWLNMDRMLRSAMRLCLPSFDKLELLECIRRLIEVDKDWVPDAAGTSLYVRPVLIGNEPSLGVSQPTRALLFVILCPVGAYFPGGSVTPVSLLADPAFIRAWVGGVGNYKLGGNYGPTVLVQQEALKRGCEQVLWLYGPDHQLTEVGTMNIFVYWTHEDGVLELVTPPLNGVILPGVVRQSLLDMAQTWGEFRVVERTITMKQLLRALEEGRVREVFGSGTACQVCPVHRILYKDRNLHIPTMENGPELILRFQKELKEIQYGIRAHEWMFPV

O=C(O)CCC(C(=O)c1ccc(Br)cc1)c1ccccc1 (centres unmarked) [ERG245]
IC50 [1]: ~0.5 nM
IC50 [2]: > 1000 nM
